Results taken from ChEMBL document CHEMBL1201862, “PubChem BioAssay data set” (2004).
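Interpolation was linear, between the two tested concentrations surrounding the appropriate level; five concentrations were tested over 48 hours in 96-well plates. GI50: concentration for 50% inhibition of growth.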 The source made the active and inactive calls. Rule as the data show it: active = GI50 up to about 1.1 µM and inactive = higher.

Key:
Assay in all cases: NCI-60 cell line screen, 48 h
SK-MEL-5 = system: SK-MEL-5
UACC-62 = system: UACC-62
RPMI-8226 = system: RPMI-8226
NCI/ADR-RES = system: NCI/ADR-RES
EKVX = system: EKVX
UACC-257 = system: UACC-257
RXF 393 = system: RXF 393
MOLT-4 = system: MOLT-4
BT-549 = system: BT-549
SNB-19 = system: SNB-19
HL-60 = system: HL-60
SK-OV-3 = system: SK-OV-3
Hs-578T = system: Hs-578T
HCT-116 = system: HCT-116
IGROV-1 = system: IGROV-1
A549 = system: A549
T47D = system: T47D
KM12 = system: KM12
MCF7 = system: MCF7
OVCAR-4 = system: OVCAR-4

Measured: GI50

O=C1CC(Br)c2c(Cl)sc(Cl)c21 (stereo not drawn)
inactive: SK-MEL-5 17.6 µM | UACC-62 11.8 µM | RPMI-8226 1.43 µM | NCI/ADR-RES 24 µM | EKVX 17.5 µM | UACC-257 4 µM | RXF 393 2.39 µM | MOLT-4 1.94 µM | BT-549 20.8 µM | SNB-19 19.3 µM | HL-60 2.13 µM | SK-OV-3 16.7 µM | Hs-578T 16.5 µM | HCT-116 4.56 µM | IGROV-1 11.4 µM | A549 18.3 µM | T47D 4.18 µM | KM12 6.58 µM | MCF7 3.66 µM

CCN(CC)CCOC(c1cc(OC)ccc1OC)c1ccc2n1-c1ccccc1OC2 (stereo not drawn)
inactive: SK-MEL-5 10.4 µM | UACC-62 2.39 µM | RPMI-8226 3.44 µM | NCI/ADR-RES 2.57 µM | EKVX 16.1 µM | UACC-257 16 µM | RXF 393 8.91 µM | BT-549 12.7 µM | OVCAR-4 13.9 µM | SNB-19 15.7 µM | HL-60 13.2 µM | Hs-578T 13.7 µM | HCT-116 12.6 µM | IGROV-1 7 µM | A549 14 µM | T47D 24 µM | KM12 16.5 µM | MCF7 14.6 µM

CN(CCCNC(=O)c1cn(C)c2c1ccc1cc(Cl)c(Cl)cc12)CCCNC(=O)c1cn(C)c2c1ccc1cc(Cl)c(Cl)cc12
inactive: SK-MEL-5 14.7 µM | UACC-62 16.1 µM | NCI/ADR-RES 15.2 µM | EKVX 15.4 µM | UACC-257 19.3 µM | RXF 393 4.42 µM | MOLT-4 10.4 µM | BT-549 15.6 µM | SNB-19 7 µM | HL-60 2.47 µM | SK-OV-3 15.2 µM | Hs-578T 8.73 µM | HCT-116 12.2 µM | IGROV-1 7.62 µM | A549 11 µM | T47D 13.7 µM | KM12 5.31 µM | MCF7 5.16 µM
active: OVCAR-4 0.789 µM

CCOC(=O)C(O)Cc1cnc2ccccc2n1 (stereo not drawn)
inactive: SK-MEL-5 > 100 µM | UACC-62 > 100 µM | RPMI-8226 > 100 µM | NCI/ADR-RES > 100 µM | EKVX 73.5 µM | UACC-257 > 100 µM | RXF 393 > 100 µM | MOLT-4 > 100 µM | BT-549 > 100 µM | OVCAR-4 > 100 µM | SNB-19 > 100 µM | SK-OV-3 > 100 µM | Hs-578T > 100 µM | HCT-116 > 100 µM | IGROV-1 94.2 µM | A549 > 100 µM | T47D > 100 µM | KM12 > 100 µM | MCF7 80.7 µM

COc1cc2c(cc1OC)C1=Cc3cc(OC)c(OC)cc3C(C)N1C=C2 (stereo not drawn)
inactive: SK-MEL-5 38.4 µM | UACC-62 75.7 µM | RPMI-8226 40 µM | NCI/ADR-RES > 100 µM | EKVX > 100 µM | UACC-257 33.7 µM | RXF 393 57.4 µM | MOLT-4 35.2 µM | BT-549 34.6 µM | SNB-19 59.4 µM | HL-60 > 100 µM | SK-OV-3 > 100 µM | Hs-578T 74 µM | HCT-116 50.2 µM | IGROV-1 > 100 µM | A549 > 100 µM | T47D 29.3 µM | KM12 74.8 µM | MCF7 21 µM

COc1ccc(-c2oc3cc(OC)c(OC)c(OC)c3c(=O)c2OC)cc1OC [HEXAMETHOXYFLAVONE]
inactive: SK-MEL-5 53.8 µM | UACC-62 > 100 µM | NCI/ADR-RES > 100 µM | EKVX > 100 µM | UACC-257 > 100 µM | RXF 393 > 100 µM | MOLT-4 > 100 µM | BT-549 > 100 µM | OVCAR-4 > 100 µM | SNB-19 > 100 µM | HL-60 20.8 µM | SK-OV-3 > 100 µM | Hs-578T > 100 µM | HCT-116 > 100 µM | IGROV-1 > 100 µM | A549 > 100 µM | T47D 79.6 µM | KM12 > 100 µM | MCF7 > 100 µM
